Test results as given in patent US20160102316A1, “STRESS TOLERANT PLANTS” (CONSEJO SUPERIOR DE INVESTIGACIONES CIENTIFICAS(CSIC), priority 2013, published 2016).
“Also recorded” adds a separate entry of the source. Peptide text beside a SMILES is read from it. * marks the point of attachment. Cbz = O=C(OCc1ccccc1)*

Tests used:
3HA-PYL8 [1] = assay: MG132 treatment of oe3HA-PYL8 seedlings, anti-HA immunoblot; type: in vivo, Arabidopsis; conditions: 9-d-old oe3HA-PYL8 seedlings, 50 μM MG132, 2 h, vs mock
Procedure: To determine whether PYL8 is a substrate of the UPS, we treated Arabidopsis seedlings expressing a 3×HA-tagged PYL8 fusion (oe3HA-PYL8) with proteasome inhibitor MG132. […] Moreover, upon proteasome inhibition several bands of high MW were detected, likely corresponding to ubiquitinated 3HA-PYL8 forms.
(§1) For protein extraction from seedlings, proteins were extracted in buffer containing 50 mM Tris-HCl pH 7.4, 150 mM NaCl, 10mM MgCl2, 1 mM PMSF, 0.1%NP-40 and 1× complete protease inhibitor (Roche). After centrifugation at 16,000 g at 4° C., the supernatants were collected. This step was repeated twice. For protein extraction from seeds, seeds were frozen in liquid N2 and then homogenized in buffer containing 7 M urea, 2 M thiourea, 4% 3-[(3-cholamidopropyl)dimethylammonio]-1-propanesulfonate (CHAPS; w/v), 18 mM Tris-HCl pH 7.5, 0,2% Triton X100, 1× complete protease inhibitor (Roche). After 10 min incubation at 4° C. with rotation. DTT was added to protein extracts (14 mM final concentration), prior to 20 min incubation at 4° C. Extracts were clarified by centrifugation as afore-mentioned. Protein concentration in final supernatants was determined using a Bio-Rad Protein Assay kit. […]

3HA-PYL8 [2] = biological target: T1, 3HA-PYL8 (Arabidopsis thaliana, UniProt Q9FGM1); assay: In vivo protein degradation assay (cycloheximide time course, immunoblot); conditions: 8-d-old seedlings treated with cycloheximide
T1 construct: expressed in transfected cells; host or cells: stably transformed Arabidopsis thaliana (Col-0) plants, line oe3HA-PYL8: seedlings or imbibed seeds; seed lines in pyl8-1 background, some crossed with oeDDA1-GFP
T1 sequence (Q9FGM1 1-188): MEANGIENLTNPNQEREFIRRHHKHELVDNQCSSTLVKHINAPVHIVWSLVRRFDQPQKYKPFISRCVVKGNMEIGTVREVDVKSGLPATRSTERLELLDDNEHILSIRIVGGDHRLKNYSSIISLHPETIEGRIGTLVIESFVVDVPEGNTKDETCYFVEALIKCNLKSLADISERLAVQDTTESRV
Procedure: as §1, with “kit. For in vivo co-immunoprecipitation assays, normalized seedling protein extracts were incubated with 5 μl anti-GFP antibody (Living colors Full length A.V. Polyclonal Antibody, Clontech) for 1 h at 4° C. with rotation. 10 μl of protein A-coupled beads (prewashed twice with 0.1 M Glycine pH 2.7) were added to the samples and incubated for an additional hour at 4° C. with rotation.” for “kit.”

3HA-PYL8 [3] = biological target: T1, 3HA-PYL8; assay: Immunoblot of 3HA-PYL8 levels in imbibed seeds; type: in vivo; conditions: 24 h in MS media with 3 μM ABA
Procedure: (G) Immunoblot analysis of 3HA-PYL8 levels in seeds corresponding to oe3HA-PYL8/oeDDA1-GFP and control (oe3HA-PYL8) plants. Both lines were in the pyl8-1 background. Prior to protein extraction, imbibed seeds were maintained for 24 h in MS media with or without 3 μM ABA. Anti-HA and anti-RPT5 antibodies were used to detect 3HA-PYL8 and for loading control purposes, respectively.
as §1

HA-PYL8 transcript = HA-PYL8 transcript levels in ABA-treated seeds (semiquantitative RT-PCR); type: in vivo, Arabidopsis; conditions: oeHA-PYL8 seeds, ABA treatment for 24 h
Procedure: Semiquantitative PCR experiments from seedlings were performed using RNA prepared as afore-mentioned. RNA extraction from seeds was carried out as previously described (Onate-Sanchez and Vicente-Carbajosa, 2008). cDNA from all tissues was synthetized as described above. […] of one-fifth diluted cDNA was used to amplify DDA1-GFP, 3HA-PYL8 and the housekeeping gene ACTIN8 using the following primer:
The PCR conditions were as follows: 1 min at 94° C., 35 cycles of 15 s at 94° C., 1 min at 58-62° C., and 1 min 30 s at 72° C., and finally, 5 min at 72° C. 25

[4] = biological target: T2, PP2C-ABA-PYL8 ternary complexes (Arabidopsis thaliana, UniProt Q9FGM1); conditions: ternary complex of PYL8 with ABA and clade A PP2C; cited from earlier work
T2 sequence (Q9FGM1 1-188): T1 sequence (Q9FGM1 1-188)

PYL8 gene expression = conditions: after 3 h of ABA treatment; cited from earlier work

Which 3HA-PYL8 protein accumulation (3HA-PYL8 [1]) does the source give for CC(C)C[C@@H](C=O)NC(=O)[C@H](CC(C)C)NC(=O)[C@H](CC(C)C)NC(=O)OCc1ccccc1 [MG132] (Cbz-Leu-Leu-Leu-aldehyde) here?
The 3HA-PYL8 protein accumulation was “increased 3HA-PYL8 protein accumulation; also recorded: stabilizes 3HA-PYL8”.

What about the 3HA-PYL8 destabilization/accumulation (3HA-PYL8 [2]; 50 μM MG132, oe3HA-PYL8 and oe3HA-PYL8/oeDDA1-GFP) of the same compound?
Its 3HA-PYL8 destabilization/accumulation is “attenuated 3HA-PYL8 destabilization; also recorded: increased accumulation of 3HA-PYL8”.

What does the source list for CC1=CC(=O)CC(C)(C)[C@@]1(O)/C=C/C(C)=C\C(=O)O [ABA, abscisic acid]?
3HA-PYL8 degradation (3HA-PYL8 [2]; 50 μM ABA): blocked 3HA-PYL8 degradation; 3HA-PYL8 accumulation in seeds (3HA-PYL8 [3]): increased accumulation of 3HA-PYL8; HA-PYL8 transcript levels (HA-PYL8 transcript): reduced HA-PYL8 transcript levels; Kd [4]: 20 to 40 nM; PYL8 gene expression (PYL8 gene expression): reduces PYL8 gene expression
